# According to patent US20080009025A1, “PROTEIN KINASE REGULATION” (priority 1999, published 2008):
# Where a SMILES comes first, the peptide text is derived from it.
# Tests used:
# PDK1-wt = target: T1, PDK1-wt (Homo sapiens, UniProt O15530); assay: Phosphorylation of AGC kinase substrates by PDK1 (32P, PhosphoImager); type: biochemical; settings: hydrophobic motif Phe to Ala mutants
# T1 construct: made in house; host or cells: human embryonic kidney 293 cells
# T1 sequence (O15530 1-556): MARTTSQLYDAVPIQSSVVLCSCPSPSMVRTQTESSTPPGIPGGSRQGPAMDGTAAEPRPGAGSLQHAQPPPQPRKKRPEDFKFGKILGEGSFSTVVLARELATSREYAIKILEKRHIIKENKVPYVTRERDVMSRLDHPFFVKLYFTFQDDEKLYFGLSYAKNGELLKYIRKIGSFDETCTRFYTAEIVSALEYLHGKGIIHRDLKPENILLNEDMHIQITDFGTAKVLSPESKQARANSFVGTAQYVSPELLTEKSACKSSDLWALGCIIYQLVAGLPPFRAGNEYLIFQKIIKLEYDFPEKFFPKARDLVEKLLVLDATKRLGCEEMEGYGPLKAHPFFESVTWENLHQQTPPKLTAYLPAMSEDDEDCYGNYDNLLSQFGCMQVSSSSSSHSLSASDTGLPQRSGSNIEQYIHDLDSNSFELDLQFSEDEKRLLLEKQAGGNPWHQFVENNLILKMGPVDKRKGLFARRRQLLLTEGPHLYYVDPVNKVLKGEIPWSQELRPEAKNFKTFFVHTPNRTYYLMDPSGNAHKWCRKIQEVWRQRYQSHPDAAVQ
# Description: Phosphorylation of AGC kinase substrates by PDK1. The phosphorylation of PDK1 substrates was performed in a final volume of 20 μl in a buffer containing 50 mM Tris-HCl pH 7.5, 0.1% (by vol) 2-mercaptoethanol, 10 mM magnesium chloride, 100 μM [γ-^32P]ATP (˜1000 c.p.m./pmol), 0.5 μM microcystin-LR, 0.6 μM AGC kinase substrate and 0.6 to 30 nM wild type PDK1 or the indicated mutant of PDK1.
# Relative phosphorylation of PDK1 substrates. PDK1 substrates were phosphorylated in vitro, subjected to SDS-PAGE, and radioactivity associated with the bands measured using a Phospho-Imager and known amounts of ATP as standard. The phosphorylation rate of PKB[S473D] in the presence of PtdIns (3,4,5)P3 was 2.6 mol/mol PDK1/min and was taken as the relative value of 100. Average values from a representative experiment performed in duplicates are shown.
# PDK1 [1] = assay: PDK1 activity towards synthetic peptide substrates T308tide or PDKtide; type: biochemical, human; settings: PDK1 L155 mutants
# Description: (§1) FIG. 12. PDK1 is activated and stabilised through its interaction with PIFtide. (A) GST-PDK1 activity was measured in the presence of increasing concentrations of wild type (wt) PIFtide (closed circles) or a mutant D978A PIFtide (open circles) using the synthetic peptide substrate termed T308tide, as described in Material and Methods. The data was fitted to a hyperbola using the Kaleidagraph™ software. The connection needed to obtain 50% activation of PDK1 was […] for wt-PIFtide and 1.1 μM for D978A-PIFtide. The assay shown was performed in triplicate and there was less than 5% difference between each assay. Similar results were obtained in 2 further experiments (B)—The wild type GST-PDK1 (circles) or the L155D mutant of GST-PDK1 (squares) was incubated in the presence (closed symbols) or absence (open symbols) of […] PIFtife and then for 2 min at the indicated temperatures, rapidly brought to 0° C. (see Materials and Methods), and 2 min later assayed at 30° C. for 10 min using T308tide as substrate. The activity of PDK1 obtained by incubation at 30° C. was taken as 100%. The assay shown was performed in duplicate with similar results obtained in two separate experiments.
# (§2) FIG. 14. […] (A) His-PDK1 was assayed for activity using as substrate the indicated concentration of either PDKtide (open triangles) or T308tide (open circles). (B) HIS-PDK1 was assayed for activity in the presence if PDKtide (25 μM closed triangles) or T308tide (100 μM closed circles) in the presence of the indicated concentrations of PIFtide. The assay was performed in triplicates with less than 5% difference between the triplicate samples. Similar results were obtained in 3 separate experiments.
# (§3) PDK1's ability to phosphorylate Thr308 of PKBα was measured using a mutant of GST-PKBα in which Ser473 was mutated to Asp (GST-473D PKBα) in the presence of phospholipid vesicles containing sn-1-stearoyl-2-arachidonoyl-D-PtdIns (3, 4, 5)P3 [13]. The ability of wild type and mutant PDK1 to phosphorylate the synthetic peptides T308tide or PDKtide was carried out in 20 μl assays containing 50 mM Tris/HCl pH 7.5, 0.1% 2-mercaptoethanol 10 mM MgCl2, 100 μM [γ^32P]ATP (˜500 cpm/pmol) 0.5 μM microcystin-LR.PDK1 and the peptide concentrations indicated under Results. After incubation for 10 min at 30° C. the reaction was stopped by addition of 20 μl of 150 mM phosphoric acid. 35 μl of the resultant mixture was spotted into P81 phosphocellulose paper (2×2 cm) and the papers washed and analysed as described previously for assays of MAP kinase. […] Control assays were carried out in parallel in which either PDK1, or peptide substrate were omitted; these values were always less than 5% of the activity measured in the presence of these reagents. […]
# PDK1 [2] = target: T2, PDK1 (Homo sapiens, UniProt O15530); assay: as above; type: biochemical; settings: substrate PDKtide
# T2 construct: Full length PDK1 (residues 1-556); made in house; host or cells: 293 cells
# T2 sequence (O15530 52-556): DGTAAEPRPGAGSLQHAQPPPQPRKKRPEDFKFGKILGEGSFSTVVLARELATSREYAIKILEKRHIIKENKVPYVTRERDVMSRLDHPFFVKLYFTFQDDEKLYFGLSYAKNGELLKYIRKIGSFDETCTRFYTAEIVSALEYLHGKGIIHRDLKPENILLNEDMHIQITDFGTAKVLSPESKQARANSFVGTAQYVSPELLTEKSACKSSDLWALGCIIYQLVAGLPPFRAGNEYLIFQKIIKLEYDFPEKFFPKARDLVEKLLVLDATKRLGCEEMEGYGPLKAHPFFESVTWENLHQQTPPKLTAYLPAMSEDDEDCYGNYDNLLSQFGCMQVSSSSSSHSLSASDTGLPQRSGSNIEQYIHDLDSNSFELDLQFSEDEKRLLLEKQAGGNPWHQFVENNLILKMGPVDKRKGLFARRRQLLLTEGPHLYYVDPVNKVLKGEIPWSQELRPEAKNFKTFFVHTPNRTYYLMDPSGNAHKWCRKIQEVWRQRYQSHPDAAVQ
# Description: as §1, §2, §3
smiles,measurement,setting,value
CC[C@H](C)[C@H](NC(=O)[C@H](Cc1ccc(O)cc1)NC(=O)[C@H](CC(=O)O)NC(=O)[C@H](Cc1ccccc1)NC(=O)[C@H](CC(=O)O)NC(=O)[C@H](CCCNC(=N)N)NC(=O)[C@H](Cc1ccccc1)NC(=O)[C@H](CCSC)NC(=O)[C@H](CCC(=O)O)NC(=O)[C@H](CCC(N)=O)NC(=O)[C@H](CCC(=O)O)NC(=O)[C@H](CCC(=O)O)NC(=O)[C@H](CCC(=O)O)NC(=O)[C@H](CO)NC(=O)[C@H](CC(C)C)NC(=O)[C@@H](NC(=O)[C@H](CCCNC(=N)N)NC(=O)[C@@H]1CCCN1C(=O)[C@H](CCC(=O)O)NC(=O)[C@@H](N)CCCNC(=N)N)[C@@H](C)CC)C(=O)N[C@@H](C)C(=O)N[C@@H](CC(=O)O)C(=O)N[C@@H](Cc1c[nH]c2ccccc12)C(=O)N[C@@H](CS)C(=O)O [PIFtide] (H-REPRILSEEEQEMFRDFDYIADWC-OH; N-terminus and C-terminus assumed),"basal rate at which PDK1 phosphorylated S6K1[F411A], SGK1[F421A] and ΔPH-PKBα[F472A]",PDK1-wt,not inhibited
same,"activation of L155A, L155S, L155D and L155E mutants of PDK1 towards T308tide",PDK1 [1],did not further activate
same,effect on the activity of PDK1 towards PDKtide,PDK1 [2],inhibited
